Experimental data: patent US8541573B2, “Substituted sulfonamide compounds” (Gruenenthal GmbH, priority 2008, dated 2013)

Tests used:
B1R of rats = molecular target: T1, B1R of rats (Rattus norvegicus, UniProt P97583); assay: Functional investigation on the bradykinin 1 receptor (B1R), cell-based fluorescent calcium-mobilization assay (FLIPR/Novostar), rat; settings: 10 μM test substance; CHO K1 cells stably transfected with rat B1R gene; agonist Des-Arg9-bradykinin at EC80; % inhibition compared with maximum achievable inhibition; read-out: B1R antagonism, rat [10 μM] % inhibition
T1 construct: expressed in transfected cells; host or cells: CHO K1 cells
T1 sequence (P97583 1-337): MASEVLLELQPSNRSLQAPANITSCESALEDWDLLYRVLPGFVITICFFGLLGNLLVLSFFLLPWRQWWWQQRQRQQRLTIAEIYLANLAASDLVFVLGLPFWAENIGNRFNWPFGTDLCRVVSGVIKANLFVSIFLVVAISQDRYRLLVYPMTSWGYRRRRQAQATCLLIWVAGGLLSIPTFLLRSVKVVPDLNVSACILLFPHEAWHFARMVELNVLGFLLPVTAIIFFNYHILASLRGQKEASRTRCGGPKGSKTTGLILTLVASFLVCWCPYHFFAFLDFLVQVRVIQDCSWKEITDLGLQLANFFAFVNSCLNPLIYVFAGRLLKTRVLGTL
How it was run: (§1)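 Stably transfected CHO K1 cells loaded with Fluo-4-AM; fluorescence peak read by FLIPR/Novostar (ex 488, em 540 nm). Test compounds at 10 μM give % activation vs Lys-Des-Arg9-BK (human) or Des-Arg9-BK (rat); after 6-20 min, agonist added at EC80 and % inhibition vs maximum achievable inhibition derived.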

human B1R = molecular target: T2, human B1R (Homo sapiens, UniProt P46663); assay: Functional investigation on the bradykinin 1 receptor (B1R), cell-based fluorescent calcium-mobilization assay (FLIPR/Novostar), human; settings: 10 μM test substance; CHO K1 cells stably transfected with human B1R gene; agonist Lys-Des-Arg9-bradykinin at EC80; % inhibition compared with maximum achievable inhibition; read-out: B1R antagonism, human [10 μM] % inhibition
T2 construct: expressed in transfected cells; host or cells: CHO K1 cells
T2 sequence (P46663 1-353): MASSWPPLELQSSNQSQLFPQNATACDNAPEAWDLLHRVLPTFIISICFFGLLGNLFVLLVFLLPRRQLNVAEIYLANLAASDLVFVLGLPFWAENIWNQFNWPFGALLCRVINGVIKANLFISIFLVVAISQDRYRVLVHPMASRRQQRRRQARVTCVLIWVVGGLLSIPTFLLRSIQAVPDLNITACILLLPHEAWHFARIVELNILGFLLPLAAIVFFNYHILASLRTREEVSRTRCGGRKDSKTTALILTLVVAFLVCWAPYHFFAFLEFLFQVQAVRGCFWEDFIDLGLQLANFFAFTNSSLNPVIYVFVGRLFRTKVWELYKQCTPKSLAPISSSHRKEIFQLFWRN
How it was run: as §1

| SMILES | inhibition at 10 µM (B1R of rats) | inhibition at 10 µM (human B1R) |
| --- | --- | --- |
| CC(=O)NCC1(N2CCN(C)CC2)CCN(C(=O)CC2CCCCN2S(=O)(=O)c2cccc(C(F)(F)F)c2)CC1 (stereo not shown) [Example 12, N-((4-(4-methylpiperazin-1-yl)-1-(2-(1-(3-(trifluoromethyl)phenylsulfonyl)-piperidin-2-yl)acetyl)piperidin-4-yl)methyl)acetamide] | 13% | 80% |
| COc1cc(C)c(S(=O)(=O)N2CCCCC2COCC(=O)N2CCC(CNC(=O)Cc3ccccc3)(N3CCN(C)CC3)CC2)c(C)c1 (stereo not shown) [Example 3, N-((1-(2-((1-(4-methoxy-2,6-dimethylphenylsulfonyl)piperidin-2-yl)methoxy)acetyl)-4-(4-methylpiperazin-1-yl)piperidin-4-yl)methyl)-2-phenylacetamide] | 104% | 103% |
| COc1cc(C)c(S(=O)(=O)N2CCCCC2COCC(=O)N2CCC(CNC(C)=O)(N3CCN(c4ccncc4)CC3)CC2)c(C)c1 (stereo not shown) [Example 22, N-((1-(2-((1-(4-methoxy-2,6-dimethylphenylsulfonyl)piperidin-2-yl)methoxy)acetyl)-4-(4-(pyridin-4-yl)piperazin-1-yl)piperidin-4-yl)methyl)acetamide] | 101% | 103% |
| COc1cc(C)c(S(=O)(=O)N(C)CCOCC(=O)N2CCC(CNC(=O)c3cccnc3)(N3CCN(C)CC3)CC2)c(C)c1 [Example 32, N-((1-(2-(2-(4-methoxy-N,2,6-trimethylphenylsulfonamido)ethoxy)acetyl)-4-(4-methylpiperazin-1-yl)piperidin-4-yl)methyl)nicotinamide] | 101% | 104% |
| COc1cc(C)c(S(=O)(=O)N(C)CCOCC(=O)N2CCC(CNC(=O)c3ccncc3)(N3CCN(C)CC3)CC2)c(C)c1 [Example 1, N-((1-(2-(2-(4-methoxy-N,2,6-trimethylphenylsulfonamido)ethoxy)acetyl)-4-(4-methylpiperazin-1-yl)piperidin-4-yl)methyl)isonicotinamide] | 101% | 107% |
| COc1cc(C)c(S(=O)(=O)N2c3ccccc3C[C@H]2COCC(=O)N2CCC(CNC(=O)c3ccncc3)(N3CCN(C4CC4)CC3)CC2)c(C)c1 [Example 45, (S)—N-((4-(4-Cyclopropylpiperazin-1-yl)-1-(2-((1-(4-methoxy-2,6-dimethylphenylsulfonyl)indolin-2-yl)methoxy)acetyl)piperidin-4-yl)methyl)isonicotinamide] | 102% | 100% |
| CN1CCN(C2(CNC(=O)c3ccccn3)CCN(C(=O)CC3CCCCN3S(=O)(=O)c3cccc(C(F)(F)F)c3)CC2)CC1 (stereo not shown) [Example 18, N-((4-(4-methylpiperazin-1-yl)-1-(2-(1-(3-(trifluoromethyl)phenylsulfonyl)-piperidin-2-yl)acetyl)piperidin-4-yl)methyl)picolinamide] | 17% | 97% |
| CN1CCN(C2(CNC(=O)c3ccccn3)CCN(C(=O)CC(NS(=O)(=O)c3ccc4ccccc4c3)c3ccccc3)CC2)CC1 (stereo not shown) [Example 19, N-((4-(4-methylpiperazin-1-yl)-1-(3-(naphthalene-2-sulfonamido)-3-phenylpropanoyl)piperidin-4-yl)methyl)picolinamide] | 83% | 102% |
| O=C(NCC1(N2CCN(C3CC3)CC2)CCN(C(=O)COCCN(C2CC2)S(=O)(=O)c2ccccc2C(F)(F)F)CC1)c1ccncc1 [Example 47, N-((1-(2-(2-(N-Cyclopropyl-2-(trifluoromethyl)phenylsulfonamido)ethoxy)acetyl)-4-(4-cyclopropylpiperazin-1-yl)piperidin-4-yl)methyl)isonicotinamide] | 99% | 100% |
| CN1CCN(C2(CNC(=O)c3ccccc3)CCN(C(=O)CC(NS(=O)(=O)c3ccc4ccccc4c3)c3ccccc3)CC2)CC1 (stereo not shown) [Example 16, N-((4-(4-methylpiperazin-1-yl)-1-(3-(naphthalene-2-sulfonamido)-3-phenylpropanoyl)piperidin-4-yl)methyl)benzamide] | 31% | 94% |
| CC(=O)NCC1(N2CCN(c3ccncc3)CC2)CCN(C(=O)COCC2CCc3ccccc3N2S(=O)(=O)c2ccc(Cl)c(Cl)c2)CC1 (stereo not shown) [Example 17, N-((1-(2-((1-(3,4-dichlorophenylsulfonyl)-1,2,3,4-tetrahydroquinolin-2-yl)methoxy)acetyl)-4-(4-(pyridin-4-yl)piperazin-1-yl)piperidin-4-yl)methyl)acetamide] | 101% | 104% |
| CC(=O)NCC1(N2CCN(c3ccncc3)CC2)CCN(C(=O)CC2CCCCN2S(=O)(=O)c2cccc(C(F)(F)F)c2)CC1 (stereo not shown) [Example 36, N-((4-(4-(pyridin-4-yl)piperazin-1-yl)-1-(2-(1-(3-(trifluoromethyl)phenyl-sulfonyl)piperidin-2-yl)acetyl)piperidin-4-yl)methyl)acetamide] | 101% | 99% |
| COc1cc(C)c(S(=O)(=O)N2c3ccccc3OCC2COCC(=O)N2CCC(CNC(=O)c3ccncc3)(N3CCN(C)CC3)CC2)c(C)c1 (stereo not shown) [Example 49, N-((1-(2-((4-(4-Methoxy-2,6-dimethylphenylsulfonyl)-3,4-dihydro-2H-benzo[b][1,4]oxazin-3-yl)methoxy)acetyl)-4-(4-methylpiperazin-1-yl)piperidin-4-yl)methyl)isonicotinamide] | 102% | 100% |
| CC(=O)NCC1(N2CCN(C)CC2)CCN(C(=O)CCC2CCCCN2S(=O)(=O)c2cc(C)c(Cl)cc2C)CC1 (stereo not shown) [Example 2, N-((1-(3-(1-(4-chloro-2,5-dimethylphenylsulfonyl)piperidin-2-yl)propanoyl)-4-(4-methylpiperazin-1-yl)piperidin-4-yl)methyl)acetamide] | 74% | 81% |
| COc1cc(C)c(S(=O)(=O)N2CCCCC2COCC(=O)N2CCC(CNC(=O)c3cccnc3)(N3CCN(C)CC3)CC2)c(C)c1 (stereo not shown) [Example 34, N-((1-(2-((1-(4-methoxy-2,6-dimethylphenylsulfonyl)piperidin-2-yl)methoxy)acetyl)-4-(4-methylpiperazin-1-yl)piperidin-4-yl)methyl)nicotinamide] | 102% | 104% |
| CN1CCN(C2(CNC(=O)c3cccnc3)CCN(C(=O)CC(NS(=O)(=O)c3ccc4ccccc4c3)c3ccccc3)CC2)CC1 (stereo not shown) [Example 38, N-((4-(4-methylpiperazin-1-yl)-1-(3-(naphthalene-2-sulfonamido)-3-phenylpropanoyl)piperidin-4-yl)methyl)nicotinamide] | 73% | 50% |
| COc1cc(C)c(S(=O)(=O)N2CCCCC2COCC(=O)N2CCC(CNC(=O)c3ccccc3)(N3CCN(C)CC3)CC2)c(C)c1 (stereo not shown) [Example 5, N-((1-(2-((1-(4-methoxy-2,6-dimethylphenylsulfonyl)piperidin-2-yl)methoxy)acetyl)-4-(4-methylpiperazin-1-yl)piperidin-4-yl)methyl)benzamide] | 104% | 102% |
